Experimental data from patent US5214165A, “Compounds useful as intermediates in the synthesis of shikimic acid derivatives” (Imperial Chemical Industries PLC, priority 1989, dated 1993).
Converted amounts (≈) assume the structure as drawn. Where two headings read alike, the source gives them in different places.

What was measured:
carrot cells [1] = assay: standard carrot cell test for herbicidal activity; type: cell-based; settings: carrot cells in liquid culture, shake flasks, 25° C.
Protocol: 5) In a standard test for herbicidal activity carrot cells were grown in shake flasks at 25° C. in liquid culture (Murashige and Skoog media with 0.2 mg/liter of kinetin and 0.1 mg/liter of 2.4 dichlorophenoxyacetic acid). The growth of cells was measured and an IC50 value obtained for compounds which were added in water.

E. coli K12 [2] = assay: interaction with sulphamethoxazole, chequerboard titration; type: cell-based
Protocol: (§1) 3) The interaction of 6-fluoroshikimate (racemic mixture) with a representative sulphonamide (sulphamethoxazole) was tested using both a disc approximation method and chequerboard titration.

Enterobacter cloacae [3] = assay: interaction with sulphamethoxazole, disc approximation method; type: cell-based
Protocol: as §1

E. coli K12 [4] = assay: as above; type: cell-based
Protocol: as §1

Klebsiella pneumoniae [5] = assay: as above; type: cell-based
Protocol: as §1

E. coli N99 [6] = assay: reversal studies of growth inhibition by 6α-fluoroshikimate; type: cell-based; settings: in presence of 6α-fluoroshikimate; for Effect on the E. coli N99 inhibited growth: agent (each) at 100.0 μg/ml final well concentration, result in words
Protocol: 2) Reversal studies were performed by adding agents to an E. coli N99 (Davis and Mingioli broth) 10^6 cells/ml. suspension in the presence of 6α-fluoroshikimate and the bacterial growth assessed by the use of a spectrophotometer (Absorbance 540 nm)
Inhibition of bacterial growth was reversed by paraaminobenzoic acid (PABP) but degrees of counter reversion were seen after the addition of aromatic amino acid types. Using this technique the following results were observed: […]

S. aureus 601055 = assay: mouse protection test; type: in vivo; design: unit not given beside the values; settings: mice
E. coli N99 [7] = assay: mouse protection test; type: in vivo; design: unit not given beside the values; settings: mice
Protocol: 4) The in vivo efficacy of the fluoroshikimate was determined by the use of a mouse protection test. Male mice (18-20 g) were inoculated intraperitoneally with ten times the previously determined LD50 for E. coli N99 in 0.4 ml of hog gastric mucin (12%). Immediately after infection the mice were dosed with 0.2 ml of test compound either subcutaneously, per os or intraperitoneally. Based on the number of survivors at day 4 post infection, PD50 values were calculated by LOGIT analysis.

S. dublin 369001 = assay: mouse protection test; type: in vivo; design: unit not given beside the values; settings: mice
E. coli N99 [8] = assay: disc diffusion antibacterial activity, zones of inhibition; type: cell-based; settings: Escherichia coli; for zone of inhibition at 1.5 µg/disc: 1.5 μg applied on to disc
Protocol: (§2) 1) Antimicrobial activity was assessed in vitro using a disc diffusion method and a method wherein the test compound was in agar. Both methods employed the use of Davis and Mingioli (J. Bact (1950) 60 17-28) glucose agar.
i) The disc diffusion method used an overnight culture of E. coli N99 in Davis and Mingioli broth as an ioculum for the agar (e.g. 500 μl/100 ml agar). Test compounds were dissolved in distilled water and placed on to a 6 mm diameter disc which had just been applied to the agar surface. The plates were then incubated for 16 hours at 37° C. Using this method the following zones of inhibition were observed.

Enterobacter cloacae [9] = assay: test compound in agar method, MIC; type: cell-based; settings: glucose agar, 16 hours at 37° C., read-out: MIC (minimum inhibitory concentration)
Protocol: as §2
(§3) ii) The "test compound in agar" method studied 6-α-fluoroshikimate at various final concentration in the agar (i.e. between 0 and 500 μg/ml) to obtain MIC (minimum inhibitory concentration) values for nine different bacterial cultures. Cultures were grown in Davis and Mingioli broth for 16 hours at 37° C. and diluted in fresh Davis and Mingioli broth to give 10^6 cells/ml. 1 μl volume of each culture was applied to the surface of each agar plate containing 6-α-fluoroshikimate and the plates were then incubated for 16 hours at 37° C. before each inoculation spot was visually assessed for growth. Using this technique the following results were observed: […]

Serratia marcescens = assay: test compound in agar method, MIC; type: cell-based; settings: glucose agar, 16 hours at 37° C., read-out: MIC (minimum inhibitory concentration)
Protocol: as §2, §3

E. coli. N99 = assay: test compound in agar method, MIC; type: cell-based; settings: Escherichia coli, glucose agar, 16 hours at 37° C., read-out: MIC (minimum inhibitory concentration)
Protocol: as §2, §3

[10] = tested on: Klebsiella pneumoniae ATCC 25304; assay: test compound in agar method, MIC; type: cell-based; settings: ATCC25304, glucose agar, 16 hours at 37° C., read-out: MIC (minimum inhibitory concentration)
Protocol: as §2, §3

Bacillus subtilis = assay: test compound in agar method, MIC; type: cell-based; settings: glucose agar, 16 hours at 37° C., read-out: MIC (minimum inhibitory concentration)
Protocol: as §2, §3

[11] = tested on: Pseudomonas aeruginosa 799/wt; assay: test compound in agar method, MIC; type: cell-based; settings: glucose agar, 16 hours at 37° C., read-out: MIC (minimum inhibitory concentration)
Protocol: as §2, §3

E. coli. B = assay: test compound in agar method, MIC; type: cell-based; settings: Escherichia coli, glucose agar, 16 hours at 37° C., read-out: MIC (minimum inhibitory concentration)
Protocol: as §2, §3

Klebsiella pneumoniae [12] = assay: test compound in agar method, MIC; type: cell-based; settings: glucose agar, 16 hours at 37° C., read-out: MIC (minimum inhibitory concentration)
Protocol: as §2, §3

Bacillus licheniformis = assay: test compound in agar method, MIC; type: cell-based; settings: glucose agar, 16 hours at 37° C., read-out: MIC (minimum inhibitory concentration)
Protocol: as §2, §3

E. coli 341094 = assay: mouse protection test; type: in vivo; design: unit not given beside the values; settings: mice
carrot cells [13] = settings: well-known herbicide, in words; cited from earlier work
[14] = 16 hours at 37° C. (α: hazy zone), read-out: mm diameter zones of inhibition vs. E. coli N99

## O=C(O)C1=CC(O)C(O)C(O)C1F (racemic) [6-fluoroshikimate (racemic mixture)]
Carrot cells [1]
  IC50 (growth of carrot cells): 1.5 μ/ml
E. coli K12 [2]
  synergistic interaction with sulphamethoxazole: synergistic interaction was confirmed
Enterobacter cloacae [3]
  synergistic interaction with sulphamethoxazole: synergistic interaction
E. coli K12 [4]
  synergistic interaction with sulphamethoxazole: synergistic interaction
Klebsiella pneumoniae [5]
  synergistic interaction with sulphamethoxazole: synergistic interaction

## N[C@@H](Cc1c[nH]c2ccccc12)C(=O)O [L-tryptophan]
E. coli N99 [6]
  Effect on the E. coli N99 inhibited growth: No reversion

## Nc1ccc(C(=O)O)cc1 [PABA, paraaminobenzoic acid]
E. coli N99 [6]; Absorbance 540 nm
  Inhibition of bacterial growth reversed: reversed

## O=C(O)C1=C[C@@H](O)[C@@H](O)[C@H](O)[C@H]1F [6-α-fluoroshikimate, (3R,4R,5S,6S)6-α-Fluoroshikimic acid]
S. aureus 601055; per os
  PD50 (day 4): 20
S. aureus 601055; subcutaneous
  PD50 (day 4): 20
E. coli N99 [7]; intraperitoneal
  PD50 (day 4): > 10
E. coli N99 [7]; per os
  PD50 (day 4): 8.6
E. coli N99 [7]; subcutaneous
  PD50 (day 4): 4.6
S. dublin 369001; per os
  PD50 (day 4): 50
S. dublin 369001; subcutaneous
  PD50 (day 4): 20
E. coli N99 [8]; 0.025 μg applied on to disc, 16 hours at 37° C., read-out: mm diameter zones of inhibition vs. E. coli N99
  zone of inhibition at 0.025 µg/disc: 0 mm
E. coli N99 [8]; 0.05 μg applied on to disc, 16 hours at 37° C., hazy, read-out: mm diameter zones of inhibition vs. E. coli N99
  zone of inhibition at 0.05 µg/disc: 10 mm
E. coli N99 [8]; [14]
  zone of inhibition at 1.5 µg/disc: 29 mm
E. coli N99 [8]; 16 hours at 37° C., inner clear, read-out: mm diameter zones of inhibition vs. E. coli N99, inner clear zone
  zone of inhibition at 1.5 µg/disc: 23 mm
Enterobacter cloacae [9]
  MIC: 50 µg/mL (≈ 260 µM)
Serratia marcescens
  MIC: > 500 µg/mL
E. coli. N99
  MIC: 0.1 µg/mL (≈ 0.52 µM)
[10]
  MIC: 1 µg/mL (≈ 5.2 µM)
Bacillus subtilis
  MIC: 50 µg/mL (≈ 260 µM)
[11]
  MIC: > 500 µg/mL
E. coli. B
  MIC: 1 µg/mL (≈ 5.2 µM)
Klebsiella pneumoniae [12]
  MIC: 5 µg/mL (≈ 26 µM)
Bacillus licheniformis
  MIC: > 500 µg/mL
E. coli 341094; per os
  PD50 (day 4): 13.4
E. coli 341094; subcutaneous
  PD50 (day 4): 23.2

## O=C(O)CNCP(=O)(O)O [glyphosate]
Carrot cells [13]
  activity in the standard carrot cell test: active

## N[C@@H](Cc1ccccc1)C(=O)O [L-Phenyl alanine]
E. coli N99 [6]
  Effect on the E. coli N99 inhibited growth: No reversion

## O=C(O)C1=C[C@@H](O)[C@@H](O)[C@H](O)[C@@H]1F [6-β-fluoroshikimate, (3R,4R,5S,6R)6-β-Fluoroshikimic acid]
E. coli N99 [8]; [14]
  zone of inhibition at 1.5 µg/disc: 0 mm
E. coli N99 [8]; 3.0 μg applied on to disc, 16 hours at 37° C., very hazy, read-out: mm diameter zones of inhibition vs. E. coli N99
  zone of inhibition at 3 µg/disc: 13 mm
E. coli N99 [8]; 30.0 μg applied on to disc, 16 hours at 37° C., very hazy, read-out: mm diameter zones of inhibition vs. E. coli N99
  zone of inhibition at 30 µg/disc: 26 mm

## N[C@@H](Cc1ccc(O)cc1)C(=O)O [L-tyrosine]
E. coli N99 [6]
  Effect on the E. coli N99 inhibited growth: No reversion
